Laboratory results from US20160262390A1, “FIELD APPLICATION OF SUGARS TO INCREASE CROP YIELD” (Minn-Dak Farmers Cooperative, priority 2015, published 2016).

Tests used:
[1] = test system: sugarbeets; test: In-furrow sugar and/or fertilizer application on sugarbeets, Foxhome; assay type: in vivo, sugarbeet; conditions: for Recoverable Sugar / Sugarbeets / Yield Increase Compared to Check: in-furrow
Description: In addition to testing pre-planting application of sugar, additional in-furrow application of sugar during sugarbeet planting was conducted. This testing was conducted at the Foxhome location and included ten (10) separate treatments. These treatments included one (1) untreated check treatment in which no sugar was applied and constitutes the control element. The treatments included one (1) treatment in which only a conventional fertilizer (liquid ammonium phosphate commonly and hereafter referred to as “10-34-0”) was applied in-furrow. […] Four (4) treatments included the in-furrow application of concentrated raw sugar juice (hereafter “CONCRJ”) at varying rates and/or 10-34-0. Liquid sugar is essentially comprised of sucrose. […] Liquid sugar, concentrated raw juice and 10-34-0 were all mixed and diluted with water in a tank and a conventional sprayer was configured such that the liquid was sprayed so as to have the desired sugar and fertilizer equivalent. For the sugar applied at rates of three gallons per acre, the sugar mixture was equivalent to 25 pounds per acre of sugar. […] In each replication, the liquid was applied into the furrow during planting of the sugarbeet seeds. A summary of the in-furrow sugar beet testing is contained in Table 16 below: […]

[2] = test system: sugarbeets; test: Sugarbeet field trial, Wilkin County, Minnesota (ACH 228 seed); assay type: in vivo
Description: To test the efficacy of using a sugar based fertilizer composition with sugarbeets, a field trial using Crystal® brand ACH 228 sugarbeet seed was conducted in Wilkin County, Minnesota. A total of eleven (11) treatments were conducted. Each treatment was replicated four times arranged in a Randomized Complete Block (RCB) Design in the same field. Each replication consisted of a plot having a width of six (6) rows with twenty two (22) inch row spacing having a row length of twenty five (25) feet. To reduce/eliminate any treatment impacts between adjacent plots, only the four (4) interior rows of each plot were treated and evaluated. With the exception of the treatment program applied to the individual plots, which will be discussed below, conventional commercial growing practices were otherwise followed during the field trials. The individual plots experienced the same growing conditions throughout the season.
The treatment regimen for the sugarbeets included one (1) untreated treatment in which no sugar was applied was used as the control element. One (1) treatment included Sun Energy Foliar Fertilizer (SE) available from Micro Nutrients Online. […] treatments were conducted using GS. SE is available in liquid form and was applied by spraying while GS was supplied in a conventional solid form and applied via broadcast spreading. SE is for foliar application and was applied according to the labeling instructions on post-emergent (Post) sugarbeet plants at the both the 4-Leaf and 8-Leaf stages. GS was applied at a variety of times, both pre-planting (Pre) and on post-emergent sugarbeet plants (Post) at either or both of the 4-Leaf and 8-Leaf stages. When applied during pre-planting (Pre), the GS was spread directly on the soil before spring tillage, lightly worked into the ground and followed by planting of the sugarbeet seed into the treated ground. A summary of the plot treatments are contained in Table 1 below:
Following a conventional growing season, the middle four rows of each plot were harvested and data collected for overall yield (tons of sugarbeets/Acre), sugar per ton (pounds of recoverable sugar/ton of sugarbeets) and sugar per Acre (pounds of recoverable sugar/Acre). Fisher's Exact LSD was the statistical test of choice for mean separation for the individual plots of each treatment. A summary of the sugarbeet harvest data is contained in Table 2 below: […]

[3] = sugar 3 gal/acre + 10-34-0 3 gal/acre
[4] = sugar 3 gal/acre, 10-34-0 0 gal/acre
[5] = sugar 5 gal/acre + 10-34-0 3 gal/acre
[6] = sugar 5 gal/acre, 10-34-0 0 gal/acre
[7] = Replication 3: 50 pounds/Acre Pre
[8] = Replication 4: 100 pounds/Acre Pre
[9] = Replication 5: 3 pounds/Acre 4-Leaf Post
[10] = Replication 6: 3 pounds/Acre 8-Leaf Post
[11] = Replication 7: 5 pounds/Acre 4-Leaf Post
[12] = Replication 8: 3 pounds/Acre 4-Leaf + 3 pounds/Acre 8-Leaf Post
[13] = Replication 9: 5 pounds/Acre 4-Leaf + 5 pounds/Acre 8-Leaf Post
[14] = Replication 10: 50 pounds/Acre Pre + 3 pounds/Acre 8-Leaf
[15] = Replication 11: 100 pounds/Acre Pre + 5 pounds/Acre 8-Leaf

OC[C@H]1O[C@@](CO)(O[C@H]2O[C@H](CO)[C@@H](O)[C@H](O)[C@H]2O)[C@@H](O)[C@@H]1O [LIQSUC, sucrose]
recoverable sugar compared to the check treatment and to 10-34-0 only ([1]; every in-furrow application of liquid sucrose): increase in recoverable sugar | recoverable sugar compared to the same amount of liquid sugar with no 10-34-0 ([1]; in-furrow liquid sucrose plus 10-34-0): increase in recoverable sugar | Recoverable Sugar [1, 3]: 6437.113 Pounds/Acred | Sugarbeets [1, 3]: 26.3981 Tons/Acre | Yield Increase Compared to Check [1, 3]: 12.79% | Recoverable Sugar [1, 4]: 5777.0474 Pounds/Acred | Sugarbeets [1, 4]: 23.42 Tons/Acre | Yield Increase Compared to Check [1, 4]: 1.23% | Recoverable Sugar [1, 5]: 6262.2908 Pounds/Acred | Sugarbeets [1, 5]: 25.66 Tons/Acre | Yield Increase Compared to Check [1, 5]: 9.73% | Recoverable Sugar [1, 6]: 5881.91 Pounds/Acred | Sugarbeets [1, 6]: 24.38 Tons/Acre | Yield Increase Compared to Check [1, 6]: 3.06%

OC[C@H]1O[C@@](CO)(O[C@H]2O[C@H](CO)[C@@H](O)[C@H](O)[C@H]2O)[C@@H](O)[C@@H]1O [GS, sucrose]
Pounds of Recoverable Sugar/Acre [2, 7]: 7598.95 pounds/Acre | Pounds of Recoverable Sugar/Ton of Sugarbeets [2, 7]: 282.03 pounds/ton | Tons of Sugarbeets/Acre [2, 7]: 26.94 tons/Acre | Yield Increase (recoverable sugar/Acre vs check) [2, 7]: 9.32% | Pounds of Recoverable Sugar/Acre [2, 8]: 8051.44 pounds/Acre | Pounds of Recoverable Sugar/Ton of Sugarbeets [2, 8]: 278.54 pounds/ton | Tons of Sugarbeets/Acre [2, 8]: 28.91 tons/Acre | Yield Increase (recoverable sugar/Acre vs check) [2, 8]: 15.83% | Pounds of Recoverable Sugar/Acre [2, 9]: 7021.89 pounds/Acre | Pounds of Recoverable Sugar/Ton of Sugarbeets [2, 9]: 276.83 pounds/ton | Tons of Sugarbeets/Acre [2, 9]: 25.41 tons/Acre | Yield Increase (recoverable sugar/Acre vs check) [2, 9]: 1.02% | Pounds of Recoverable Sugar/Acre [2, 10]: 7279.72 pounds/Acre | Pounds of Recoverable Sugar/Ton of Sugarbeets [2, 10]: 284.34 pounds/ton | Tons of Sugarbeets/Acre [2, 10]: 25.64 tons/Acre | Yield Increase (recoverable sugar/Acre vs check) [2, 10]: 4.73% | Pounds of Recoverable Sugar/Acre [2, 11]: 6712.87 pounds/Acre | Pounds of Recoverable Sugar/Ton of Sugarbeets [2, 11]: 274.69 pounds/ton | Tons of Sugarbeets/Acre [2, 11]: 24.43 tons/Acre | Yield Increase (recoverable sugar/Acre vs check) [2, 11]: −3.43% | Pounds of Recoverable Sugar/Acre [2, 12]: 6125.93 pounds/Acre | Pounds of Recoverable Sugar/Ton of Sugarbeets [2, 12]: 270.05 pounds/ton | Tons of Sugarbeets/Acre [2, 12]: 22.81 tons/Acre | Yield Increase (recoverable sugar/Acre vs check) [2, 12]: −11.87% | Pounds of Recoverable Sugar/Acre [2, 13]: 6957.73 pounds/Acre | Pounds of Recoverable Sugar/Ton of Sugarbeets [2, 13]: 289.83 pounds/ton | Tons of Sugarbeets/Acre [2, 13]: 24.00 tons/Acre | Yield Increase (recoverable sugar/Acre vs check) [2, 13]: 0.10% | Pounds of Recoverable Sugar/Acre [2, 14]: 7250.53 pounds/Acre | Pounds of Recoverable Sugar/Ton of Sugarbeets [2, 14]: 276.34 pounds/ton | Tons of Sugarbeets/Acre [2, 14]: 26.24 tons/Acre | Yield Increase (recoverable sugar/Acre vs check) [2, 14]: 4.31% | Pounds of Recoverable Sugar/Acre [2, 15]: 7963.70 pounds/Acre | Pounds of Recoverable Sugar/Ton of Sugarbeets [2, 15]: 274.29 pounds/ton | Tons of Sugarbeets/Acre [2, 15]: 29.03 tons/Acre | Yield Increase (recoverable sugar/Acre vs check) [2, 15]: 14.57% | yield increase in comparison to the untreated check ([2]; every pre-planting application of GS): ≥ 4% | yield increase as compared to the untreated check ([2]; largest pre-planting applications of GS): ≥ 14% | yield data ([2]; only post-emergent application of GS at 4-Leaf or 8-Leaf stage): inconclusive
